The text below walks through data of patent publication US20140058103A1, “Inhibitors of PI3K-Delta and Methods of Their Use and Manufacture” (Exelixis, Inc., priority 2010, published 2014).

PI3K delta, sequence (O00329 whole entry): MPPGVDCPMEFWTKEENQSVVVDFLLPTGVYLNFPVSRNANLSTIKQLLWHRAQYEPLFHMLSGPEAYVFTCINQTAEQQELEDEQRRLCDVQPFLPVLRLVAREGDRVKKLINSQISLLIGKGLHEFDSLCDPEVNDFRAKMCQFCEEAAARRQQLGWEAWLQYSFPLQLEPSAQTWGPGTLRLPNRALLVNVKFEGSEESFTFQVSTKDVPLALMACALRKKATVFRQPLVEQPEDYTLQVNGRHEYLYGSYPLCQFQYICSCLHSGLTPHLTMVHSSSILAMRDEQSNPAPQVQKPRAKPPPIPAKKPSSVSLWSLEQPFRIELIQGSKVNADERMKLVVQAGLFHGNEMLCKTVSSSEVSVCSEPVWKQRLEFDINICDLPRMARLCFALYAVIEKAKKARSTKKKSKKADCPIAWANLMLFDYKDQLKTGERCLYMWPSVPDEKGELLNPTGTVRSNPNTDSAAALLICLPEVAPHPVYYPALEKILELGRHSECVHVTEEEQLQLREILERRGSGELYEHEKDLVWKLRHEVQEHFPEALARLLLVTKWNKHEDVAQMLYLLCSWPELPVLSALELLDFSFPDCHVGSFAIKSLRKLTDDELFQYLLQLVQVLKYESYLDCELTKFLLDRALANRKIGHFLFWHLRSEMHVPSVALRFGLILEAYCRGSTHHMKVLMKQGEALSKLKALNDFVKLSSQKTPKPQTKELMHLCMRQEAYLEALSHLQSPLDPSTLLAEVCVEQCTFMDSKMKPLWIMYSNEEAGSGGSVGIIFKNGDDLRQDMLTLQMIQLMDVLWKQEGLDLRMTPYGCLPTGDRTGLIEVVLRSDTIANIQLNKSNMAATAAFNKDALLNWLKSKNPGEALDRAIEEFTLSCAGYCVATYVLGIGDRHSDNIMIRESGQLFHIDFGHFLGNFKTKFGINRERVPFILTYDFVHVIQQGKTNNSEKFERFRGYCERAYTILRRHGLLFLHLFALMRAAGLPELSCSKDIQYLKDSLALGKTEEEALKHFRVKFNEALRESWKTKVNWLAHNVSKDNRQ
PI3K delta, sequence (P27986 whole entry partner): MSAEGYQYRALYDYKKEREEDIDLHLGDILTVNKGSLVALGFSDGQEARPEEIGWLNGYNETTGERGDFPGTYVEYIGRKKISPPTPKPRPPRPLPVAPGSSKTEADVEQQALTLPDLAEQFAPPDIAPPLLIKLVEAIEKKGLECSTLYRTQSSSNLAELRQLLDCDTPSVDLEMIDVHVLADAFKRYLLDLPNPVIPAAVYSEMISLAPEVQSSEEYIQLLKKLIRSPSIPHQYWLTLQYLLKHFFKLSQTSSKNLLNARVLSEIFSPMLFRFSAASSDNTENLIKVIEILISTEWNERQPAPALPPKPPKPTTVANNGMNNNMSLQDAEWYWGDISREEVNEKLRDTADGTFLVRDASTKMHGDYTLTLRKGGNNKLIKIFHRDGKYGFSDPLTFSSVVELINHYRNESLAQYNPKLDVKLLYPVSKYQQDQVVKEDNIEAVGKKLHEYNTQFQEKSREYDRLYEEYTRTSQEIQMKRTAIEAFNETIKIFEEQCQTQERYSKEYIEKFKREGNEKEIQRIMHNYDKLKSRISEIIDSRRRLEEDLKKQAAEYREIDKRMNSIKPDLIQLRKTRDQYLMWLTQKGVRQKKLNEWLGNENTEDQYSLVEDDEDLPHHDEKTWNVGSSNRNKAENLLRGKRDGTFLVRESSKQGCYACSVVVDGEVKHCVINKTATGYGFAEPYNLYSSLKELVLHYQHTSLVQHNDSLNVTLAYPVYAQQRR

In the test the target is PI3K delta (Homo sapiens, UniProt O00329). Briefly: Luciferase-coupled chemiluminescence kinase assay (ATP consumption, KinaseGlo). It counts as biochemical. In a few lines:
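Compound, kinase and ATP (≤ KM) reacted 2 h at ambient temperature, then remaining ATP quantified with luciferase-luciferin (KinaseGlo) luminescence as percent consumed.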
`Cn1cc(-c2nc3c(N4CCN(S(=O)(=O)c5cccc(C(F)(F)F)c5)CC4)ncnc3n2C)cn1` [Compound 377, 9-methyl-8-(1-methyl-1H-pyrazol-4-yl)-6-(4-{[3-(trifluoromethyl)phenyl]sulfonyl}-piperazin-1-yl)-9H-purine] registered an IC50 of 250 to 500 nM. The figure for `Cn1c(C(=O)NC2CC2)nc2c(N3CCC(n4c(=O)[nH]c5ccccc54)CC3)ncnc21` [Compound 43, N-cyclopropyl-9-methyl-6-[4-(2-oxo-2,3-dihydro-1H-benzimidazol-1-yl)piperidin-1-yl]-9H-purine-8-carboxamide] is 50 to 250 nM; for `CCCCNC(=O)c1nc2c(N3CCC(n4c(=O)[nH]c5ccccc54)CC3)ncnc2n1CC` [Compound 157, N-butyl-9-ethyl-6-[4-(2-oxo-2,3-dihydro-1H-benzimidazol-1-yl)piperidin-1-yl]-9H-purine-8-carboxamide] it is 50 to 250 nM; for `CCn1c(C(=O)NCC(F)(F)F)nc2c(N3CCC4(CC3)C(=O)Nc3ccccc34)ncnc21` [Compound 160, 9-ethyl-6-(2-oxo-1,2-dihydro-1′H-spiro[indole-3,4′-piperidin]-1′-yl)-N-(2,2,2-trifluoroethyl)-9H-purine-8-carboxamide] it is below 50 nM. The same measure for `CCCn1cc(-c2nc3c(N4CCC(n5c(=O)[nH]c6ccccc65)CC4)ncnc3n2C)cn1` [Compound 147, 1-{1-[9-methyl-8-(1-propyl-1H-pyrazol-4-yl)-9H-purin-6-yl]piperidin-4-yl}-1,3-dihydro-2H-benzimidazol-2-one]: below 50 nM; for `Cn1c(-c2cnco2)nc2c(N3CCC(n4c(=O)[nH]c5ccccc54)CC3)ncnc21` [Compound 135, 1-{1-[9-methyl-8-(1,3-oxazol-5-yl)-9H-purin-6-yl]piperidin-4-yl}-1,3-dihydro-2H-benzimidazol-2-one]: 50 to 250 nM; for `CCn1c(-c2cccnc2)nc2c(N3CCC(n4c(=O)[nH]c5ccccc54)CC3)ncnc21` [Compound 296, 1-[1-(9-ethyl-8-pyridin-3-yl-9H-purin-6-yl)piperidin-4-yl]-1,3-dihydro-2H-benzimidazol-2-one]: below 50 nM. The figure for `Cn1c(C(=O)NCC2CC2)nc2c(N3CCC4(CC3)OCc3ccccc34)ncnc21` [Compound 132, N-(cyclopropylmethyl)-9-methyl-6-(1′H,3H-spiro[2-benzofuran-1,4′-piperidin]-1′-yl)-9H-purine-8-carboxamide] is 500 to 1500 nM. As for `Cn1c(C(F)(F)F)nc2c(N3CCC(n4c(=O)[nH]c5ccccc54)CC3)ncnc21` [Compound 134, 1-{1-[9-Methyl-8-(trifluoromethyl)-9H-purin-6-yl]piperidin-4-yl}-1,3-dihydro-2H-benzimidazol-2-one], the IC50 fell in the range of 250 to 500 nM.

The compound `Cc1ccccc1CNC(=O)c1nc2c(N3CCC4(CC3)C(=O)Nc3ccccc34)ncnc2n1C` [Compound 27, 9-methyl-N-[(2-methylphenyl)methyl]-6-(2-oxo-1,2-dihydro-1′H-spiro[indole-3,4′-piperidin]-1′-yl)-9H-purine-8-carboxamide] displayed an IC50 of 500 to 1500 nM.

In turn, `CCn1c(C(=O)NCC2CCOCC2)nc2c(N3CCC(n4c(=O)[nH]c5ccccc54)CC3)ncnc21` [Compound 156, 9-ethyl-6-[4-(2-oxo-2,3-dihydro-1H-benzimidazol-1-yl)piperidin-1-yl]-N-(tetrahydro-2H-pyran-4-ylmethyl)-9H-purine-8-carboxamide] returned an IC50 below 50 nM. Consider `Cn1c(C(=O)NCC2CC2)nc2c(N3CCC(n4c(=O)[nH]c5ccc(Cl)cc54)CC3)ncnc21` [Compound 229, 6-[4-(6-chloro-2-oxo-2,3-dihydro-1H-benzimidazol-1-yl)piperidin-1-yl]-N-(cyclopropylmethyl)-9-methyl-9H-purine-8-carboxamide], for which the IC50 was 500 to 1500 nM. In turn, `CC(C)c1ccc2c(c1)C1(CCN(c3ncnc4c3nc(C(=O)NCC3CC3)n4C)CC1)C(=O)N2` [Compound 136, N-(cyclopropylmethyl)-9-methyl-6-[5-(1-methylethyl)-2-oxo-1,2-dihydro-1′H-spiro[indole-3,4′-piperidin]-1′-yl]-9H-purine-8-carboxamide] showed an IC50 of 500 to 1500 nM. With `Cn1cc(-c2nc3c(N4CCN(c5ccccc5CNC(=O)C5CC5)CC4)ncnc3n2C)cn1` [Compound 362, N-[(2-{4-[9-methyl-8-(1-methyl-1H-pyrazol-4-yl)-9H-purin-6-yl]piperazin-1-yl)phenyl)methyl]cyclopropane-carboxamide], the IC50 fell in the range of 500 to 1500 nM. The same measure for `CCn1ncc(-c2nc3c(N4CCC(n5c(=O)[nH]c6ncccc65)CC4)ncnc3n2C)c1C` [Compound 337, 1-{1-[8-(1-ethyl-5-methyl-1H-pyrazol-4-yl)-9-methyl-9H-purin-6-yl]piperidin-4-yl}-1,3-dihydro-2H-imidazo[4,5-b]pyridin-2-one]: below 50 nM. The same measure for `CCn1c(-c2ccnnc2)nc2c(N3CCC4(CC3)C(=O)Nc3ccccc34)ncnc21` [Compound 316, 1′-(9-ethyl-8-pyridazin-4-yl-9H-purin-6-yl)spiro[indole-3,4′-piperidin]-2(1H)-one]: below 50 nM; for `CCn1c(C(=O)NC(C)C2CC2)nc2c(N3CCC4(CC3)C(=O)Nc3ccccc34)ncnc21` (centres unmarked) [Compound 214, N-(1-cyclopropylethyl)-9-ethyl-6-(2-oxo-1,2-dihydro-1′H-spiro[indole-3,4′-piperidin]-1′-yl)-9H-purine-8-carboxamide]: below 50 nM; for `CON(C)C(=O)c1nc2c(N3CCC(n4c(=O)[nH]c5ccccc54)CC3)ncnc2n1C` [Compound 94, N,9-dimethyl-N-(methyloxy)-6-[4-(2-oxo-2,3-dihydro-1H-benzimidazol-1-yl)piperidin-1-yl]-9H-purine-8-carboxamide]: 500 to 1500 nM.

The compound `CCCCCNC(=O)c1nc2c(N3CCC(n4c(=O)[nH]c5ccccc54)CC3)ncnc2n1C` [Compound 70, 9-methyl-6-[4-(2-oxo-2,3-dihydro-1H-benzimidazol-1-yl)piperidin-1-yl]-N-pentyl-9H-purine-8-carboxamide] registered an IC50 of 250 to 500 nM.

`O=C(NCC1CC1)c1nc2c(N3CCC(n4c(=O)[nH]c5ccccc54)CC3)ncnc2n1C1CC1` [Compound 171, 9-Cyclopropyl-N-(cyclopropylmethyl)-6-[4-(2-oxo-2,3-dihydro-1H-benzimidazol-1-yl)piperidin-1-yl]-9H-purine-8-carboxamide]: the IC50 lay within 50 to 250 nM. `Cn1cc(-c2nc3c(N4CCN(S(=O)(=O)c5ccc(Cl)cc5)CC4)ncnc3n2C)cn1` [Compound 374, 6-{4-[(4-chlorophenyl)sulfonyl]piperazin-1-yl)-9-methyl-8-(1-methyl-1H-pyrazol-4-yl)-9H-purine] showed an IC50 of 500 to 1500 nM. Take `Cn1ncc(-c2nc3c(N4CCC(n5c(=O)[nH]c6ccccc65)CC4)ncnc3n2C)c1Cl` [Compound 272, 1-{1-[8-(5-chloro-1-methyl-1H-pyrazol-4-yl)-9-methyl-9H-purin-6-yl]piperidin-4-yl}-1,3-dihydro-2H-benzimidazol-2-one]: the IC50 is below 50 nM. The figure for `Cn1c(-c2cn[nH]c2)nc2c(N3CCC4(CC3)C(=O)Nc3ccccc34)ncnc21` [Compound 238, 1′-[9-methyl-8-(1H-pyrazol-4-yl)-9H-purin-6-yl]spiro[indole-3,4′-piperidin]-2(1H)-one] is below 50 nM.
